We go through 21 compounds from patent US6387912B1, “Utilization of pyrimidine derivatives for preventing and treating cerebral ischaemia” (BASF Aktiengesellschaft, priority 1999, dated 2002).

Broadly, the melting point is the temperature, or range, at which the solid turns liquid.

Structures can show the parent of a compound that is named as a salt.

For the compound `Cc1ccc(N2CCN(CCn3cnc4sc5c(c4c3=O)CCN(C)C5)CC2)c2ccccc12` [Example 138, 3,4,5,6,7,8-Hexahydro-7-methyl-3-[2-(4-(4-methylnaphth-1-yl)piperazin-1-yl)ethyl]pyrido[4′,3′:4,5]thieno[2,3-d]-pyrimidin-4-one], the melting point was in the range of 139 to 141 °C.
`CCN1CCc2sc3ncn(CCN4CCN(c5ccccc5Cl)CC4)c(=O)c3c2C1` [Example 5, 3,4,5,6,7,8-Hexahydro-6-ethyl-3-[2-(4-(2-chlorophenyl)-piperazin-1-yl)ethyl]pyrido[3′,4′:4,5]thieno[2,3-d]-pyrimidin-4-one] had a melting point of 148 to 150 °C.
Compound `Cc1ccnc(N2CCN(CCn3cnc4sc5c(c4c3=O)CCN(C)C5)CC2)n1` [Example 153, 3,4,5,6,7,8-Hexahydro-7-methyl-3-[2-(4-(4-methylpyrimidin-2-yl)piperazin-1-yl)ethyl]pyrido[4′,3′:4,5]thieno[2,3-d]-pyrimidin-4-one] returned a melting point of 136 to 138 °C.
`Cc1c(C(=O)N(C)C)sc2ncn(CCN3CCN(c4cccc(C(F)(F)F)c4)CC3)c(=O)c12` [Example 7, 3,4-Dihydro-5-methyl-6-dimethylcarbamoyl-3-[2-(4-(3-trifluoromethylphenyl)piperazin-1-yl)ethyl]thieno[2,3-d]-pyrimidin-4-one] had a melting point of 146 °C.
`CN1CCc2c(sc3ncn(CCN4CCN(c5cc(Cl)cc(Cl)c5)CC4)c(=O)c23)C1` [Example 46, 3,4,5,6,7,8-Hexahydro-7-methyl-3-[2-(4-(3,5-dichlorophenyl)-piperazin-1-yl)ethyl]pyrido[4′,3′:4,5]thieno[2,3-d]pyrimidin-4-one] returned a melting point of 97 to 100 °C.
Under `Cc1c(C(=O)N(C)C)sc2ncn(CCN3CCN(c4cccc5c4CCC5)CC3)c(=O)c12` [Example 14, 3,4-Dihydro-5-methyl-6-dimethylcarbamoyl-3-[2-(4-indan-4-ylpiperazin-1-yl)ethyl]thieno[2,3-d]pyrimidin-4-one] stands 153 °C; under `COc1ccccc1N1CCN(CCCn2cnc3sc4c(c3c2=O)CCN(Cc2ccccc2)C4)CC1` [Example 18, 3,4,5,6,7,8-Hexahydro-7-benzyl-3-[3-(4-(2-methoxyphenyl)-piperazin-1-yl)propyl]pyrido[4′,3′:4,5]thieno[2,3-d]-pyrimidin-4-one], 66 to 67 °C; under `CCOC(=O)N1Cc2sc3ncn(CCN4CCN(c5ncccn5)CC4)c(=O)c3c2C1` [Example 11, 3,4,5,7-Tetrahydro-6-carboethoxy-3-[2-(4-pyrimidin-2-yl-piperazin-1-yl)ethyl]pyrrolo[3′,4′:4,5]thieno[2,3-d]-pyrimidin-4-one], 166 °C.
Then `Cc1c(C(=O)N(C)C)sc2ncn(CCN3CCN(c4cccc5ccccc45)CC3)c(=O)c12` [Example 3, 3,4-Dihydro-5-methyl-6-dimethylcarbamoyl-3-[2-(4-(1-naphthyl)piperazin-1-yl)ethyl]thieno[2,3-d]pyrimidin-4-one], with 190 to 191 °C; and `COc1ccccc1N1CCN(CCn2cnc3sc4c(c3c2=O)CCN(C(C)=O)C4)CC1` [Example 116, 3,4,5,6,7,8-Hexahydro-7-acetyl-3-[2-(4-(2-methoxyphenyl)-piperazin-1-yl)ethyl]pyrido[4′,3′:4,5]thieno[2,3-d]-pyrimidin-4-one], with 170 to 172 °C; and `CN1CCc2c(sc3ncn(CCCN4CCN(c5ccccc5C#N)CC4)c(=N)c23)C1` [Example 37, 3,4,5,6,7,8-Hexahydro-7-methyl-3-[3-(4-(2-cyanophenyl)-piperazin-1-yl)propyl]pyrido[4′,3′:4,5]thieno[2,3-d]-pyrimidin-4-imine], with 148 to 150 °C.
Then `CN1CCc2c(sc3ncn(CCN4CCN(c5ncccn5)CC4)c(=N)c23)C1` (as salt: tartrate) [Example 20, 3,4,5,6,7,8-Hexahydro-7-methyl-3-[2-(4-pyrimidin-2-yl-piperazin-1-yl)ethyl]pyrido[4′,3′:4,5]thieno[2,3-d]-pyrimidin-4-imine], with 112 to 114 °C (dec.); and `CN1CCc2c(sc3ncn(CCCN4CCN(c5ncccn5)CC4)c(=N)c23)C1` [Example 36, 3,4,5,6,7,8-Hexahydro-7-methyl-3-[3-(4-pyrimidin-2-yl-piperazin-1-yl)propyl]pyrido[4′,3′:4,5]thieno[2,3-d]-pyrimidin-4-imine], with 161 to 163 °C; and `CN1CCc2c(sc3ncn(CCCN4CCN(c5ccccc5O)CC4)c(=N)c23)C1` [Example 29, 3,4,5,6,7,8-Hexahydro-7-methyl-3-[3-(4-(2-hydroxyphenyl)-piperazin-1-yl)propyl]pyrido[4′,3′:4,5]thieno[2,3-d]-pyrimidin-4-imine], with 164 to 166 °C.
The compound `Cc1cccc(N2CCN(CCn3cnc4sc5c(c4c3=O)CCN(C)C5)CC2)n1` [Example 126, 3,4,5,6,7,8-Hexahydro-7-methyl-3-[2-(4-(6-methylpyridin-2-yl)piperazin-1-yl)ethyl]pyrido[4′,3′:4,5]thieno[2,3-d]-pyrimidin-4-one] came in with a melting point of 138 to 140 °C.
Compound `CCN1CCc2sc3ncn(CCN4CCN(c5cccc6c5CCCC6)CC4)c(=O)c3c2C1` (as salt: hydrochloride) [Example 12, 3,4,5,6,7,8-Hexahydro-6-ethyl-3-[2-(4-tetralin-5-yl-piperazin-1-yl)ethyl]pyrido[3′,4′:4,5]thieno[2,3-d]pyrimidin-4-one] yielded a melting point of 287 °C.
With `CN1CCc2c(sc3ncn(CCN4CCN(c5cc(C(F)(F)F)ccn5)CC4)c(=O)c23)C1` [Example 141, 3,4,5,6,7,8-Hexahydro-7-methyl-3-[2-(4-(4-trifluoromethylpyridin-2-yl)piperazin-1-yl)ethyl]pyrido[4′,3′:4,5]thieno-[2,3-d]pyrimidin-4-one], the melting point is 101 to 102 °C.
With `COc1ccccc1N1CCN(CCCn2cnc3sc4c(c3c2=N)CCN(C)C4)CC1` [Example 15, 3,4,5,6,7,8-Hexahydro-7-methyl-3-[3-(4-(2-methoxyphenyl)-piperazin-1-yl)propyl]pyrido[4′,3′:4,5]thieno[2,3-d]pyrimidin-4-imine], the melting point was 112 to 114 °C.
As for `CCOC(=O)N1Cc2sc3ncn(CCCN4CCN(c5ccccc5C#N)CC4)c(=O)c3c2C1` [Example 43, 3,4,5,7-Tetrahydro-6-carboethoxy-3-[3-(4-(2-cyanophenyl)-piperazin-1-yl)propyl]pyrrolo[3′,4′:4,5]thieno[2,3-d]-pyrimidin-4-one], the melting point was 190 °C.
Regarding `CN1CCc2c(sc3ncn(CCN4CCN(c5ccc(F)c6ccccc56)CC4)c(=O)c23)C1` [Example 140, 3,4,5,6,7,8-Hexahydro-7-methyl-3-[2-(4-(4-fluoronaphth-1-yl)-piperazin-1-yl)ethyl]pyrido[4′,3′:4,5]thieno[2,3-d]-pyrimidin-4-one], the melting point was 157 to 158 °C.
Compound `CN1CCc2c(sc3ncn(CCN4CCN(c5ccc6ccccc6n5)CC4)c(=O)c23)C1` [Example 65, 3,4,5,6,7,8-Hexahydro-7-methyl-3-[2-(4-quinolin-2-yl-piperazin-1-yl)ethyl]pyrido[4′,3′:4,5]thieno[2,3-d]-pyrimidin-4-one] displayed a melting point of 143 to 145 °C.
